For orientation: IC50 means the point on the concentration scale where inhibition reaches its midpoint. A higher IC50 goes with weaker potency in that assay.

Sequence of full-length human ATR protein (ATR/ATRIP) (Q13535 other isoform, or with tags, fused parts or gaps): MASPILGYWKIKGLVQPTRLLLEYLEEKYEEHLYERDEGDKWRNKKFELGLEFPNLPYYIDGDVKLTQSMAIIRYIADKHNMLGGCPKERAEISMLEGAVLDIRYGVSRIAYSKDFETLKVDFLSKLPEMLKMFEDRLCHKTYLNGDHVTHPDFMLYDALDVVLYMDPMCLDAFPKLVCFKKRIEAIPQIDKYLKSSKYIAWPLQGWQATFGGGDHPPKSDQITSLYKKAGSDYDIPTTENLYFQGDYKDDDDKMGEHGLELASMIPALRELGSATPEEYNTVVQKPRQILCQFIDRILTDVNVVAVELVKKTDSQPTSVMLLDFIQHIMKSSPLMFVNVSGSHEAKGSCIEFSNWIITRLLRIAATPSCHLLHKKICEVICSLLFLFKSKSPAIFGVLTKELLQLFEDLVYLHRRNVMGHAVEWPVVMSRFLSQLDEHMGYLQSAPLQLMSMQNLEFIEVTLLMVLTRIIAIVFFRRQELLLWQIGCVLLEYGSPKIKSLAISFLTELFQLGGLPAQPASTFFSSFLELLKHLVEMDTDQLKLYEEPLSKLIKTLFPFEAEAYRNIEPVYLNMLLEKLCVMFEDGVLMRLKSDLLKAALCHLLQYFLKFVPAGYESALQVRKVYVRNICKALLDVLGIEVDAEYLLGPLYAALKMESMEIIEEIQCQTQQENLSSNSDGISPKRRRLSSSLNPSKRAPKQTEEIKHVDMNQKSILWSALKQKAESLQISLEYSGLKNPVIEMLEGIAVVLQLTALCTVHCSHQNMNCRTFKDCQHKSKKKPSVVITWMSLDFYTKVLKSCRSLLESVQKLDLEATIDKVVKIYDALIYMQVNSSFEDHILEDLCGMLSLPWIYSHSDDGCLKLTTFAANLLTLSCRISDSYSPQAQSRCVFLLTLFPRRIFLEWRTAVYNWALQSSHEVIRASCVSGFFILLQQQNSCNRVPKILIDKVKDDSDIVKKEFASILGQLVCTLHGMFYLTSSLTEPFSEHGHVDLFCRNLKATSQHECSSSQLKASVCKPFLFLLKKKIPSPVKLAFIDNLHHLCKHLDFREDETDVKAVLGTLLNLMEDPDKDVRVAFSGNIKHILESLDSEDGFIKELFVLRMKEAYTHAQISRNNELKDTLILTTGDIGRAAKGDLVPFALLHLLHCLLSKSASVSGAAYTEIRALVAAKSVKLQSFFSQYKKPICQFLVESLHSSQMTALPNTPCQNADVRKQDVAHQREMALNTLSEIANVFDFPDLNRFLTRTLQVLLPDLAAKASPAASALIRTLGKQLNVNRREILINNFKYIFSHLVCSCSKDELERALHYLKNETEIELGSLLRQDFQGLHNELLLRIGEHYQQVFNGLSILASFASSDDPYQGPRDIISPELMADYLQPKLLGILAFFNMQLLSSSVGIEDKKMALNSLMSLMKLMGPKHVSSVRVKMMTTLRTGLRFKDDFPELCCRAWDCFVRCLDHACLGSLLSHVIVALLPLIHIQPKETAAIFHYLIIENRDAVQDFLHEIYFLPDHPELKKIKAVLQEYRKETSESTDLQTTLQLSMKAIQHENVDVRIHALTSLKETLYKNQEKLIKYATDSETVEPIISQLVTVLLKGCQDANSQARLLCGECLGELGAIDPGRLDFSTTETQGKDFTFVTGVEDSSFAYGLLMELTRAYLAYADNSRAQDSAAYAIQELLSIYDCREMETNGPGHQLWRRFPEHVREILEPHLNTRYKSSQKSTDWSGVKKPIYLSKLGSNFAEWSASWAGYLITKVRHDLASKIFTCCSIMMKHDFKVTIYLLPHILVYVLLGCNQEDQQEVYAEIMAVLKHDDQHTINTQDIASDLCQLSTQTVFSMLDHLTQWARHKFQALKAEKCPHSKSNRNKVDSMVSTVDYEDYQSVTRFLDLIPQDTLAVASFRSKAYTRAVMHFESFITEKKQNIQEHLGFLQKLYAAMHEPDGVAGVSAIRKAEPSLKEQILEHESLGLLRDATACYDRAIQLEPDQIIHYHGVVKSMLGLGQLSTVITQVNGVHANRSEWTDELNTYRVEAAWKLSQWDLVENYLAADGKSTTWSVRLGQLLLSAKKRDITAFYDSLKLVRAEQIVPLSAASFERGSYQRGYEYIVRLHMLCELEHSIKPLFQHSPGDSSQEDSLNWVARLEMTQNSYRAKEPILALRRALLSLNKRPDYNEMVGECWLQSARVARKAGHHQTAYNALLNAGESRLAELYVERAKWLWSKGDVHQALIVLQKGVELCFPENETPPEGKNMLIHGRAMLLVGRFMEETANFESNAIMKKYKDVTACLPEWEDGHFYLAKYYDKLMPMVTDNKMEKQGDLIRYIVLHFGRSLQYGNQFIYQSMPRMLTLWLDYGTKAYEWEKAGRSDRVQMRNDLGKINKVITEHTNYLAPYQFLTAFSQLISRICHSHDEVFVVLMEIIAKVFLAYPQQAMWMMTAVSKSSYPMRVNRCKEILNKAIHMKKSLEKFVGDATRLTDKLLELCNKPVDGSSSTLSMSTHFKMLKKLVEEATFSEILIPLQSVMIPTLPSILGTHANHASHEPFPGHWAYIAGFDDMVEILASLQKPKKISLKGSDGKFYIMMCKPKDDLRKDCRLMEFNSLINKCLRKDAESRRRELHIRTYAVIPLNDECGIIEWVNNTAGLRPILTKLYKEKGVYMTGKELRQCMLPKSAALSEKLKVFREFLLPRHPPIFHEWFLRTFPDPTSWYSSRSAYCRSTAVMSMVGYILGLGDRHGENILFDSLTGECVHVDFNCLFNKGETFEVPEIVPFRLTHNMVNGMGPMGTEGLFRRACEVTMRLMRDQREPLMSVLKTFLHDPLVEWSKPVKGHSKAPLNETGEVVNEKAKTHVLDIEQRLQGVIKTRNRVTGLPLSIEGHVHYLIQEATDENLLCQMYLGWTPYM
Sequence of full-length human ATR protein (ATR/ATRIP) (Q8WXE1 other isoform, or with tags, fused parts or gaps partner): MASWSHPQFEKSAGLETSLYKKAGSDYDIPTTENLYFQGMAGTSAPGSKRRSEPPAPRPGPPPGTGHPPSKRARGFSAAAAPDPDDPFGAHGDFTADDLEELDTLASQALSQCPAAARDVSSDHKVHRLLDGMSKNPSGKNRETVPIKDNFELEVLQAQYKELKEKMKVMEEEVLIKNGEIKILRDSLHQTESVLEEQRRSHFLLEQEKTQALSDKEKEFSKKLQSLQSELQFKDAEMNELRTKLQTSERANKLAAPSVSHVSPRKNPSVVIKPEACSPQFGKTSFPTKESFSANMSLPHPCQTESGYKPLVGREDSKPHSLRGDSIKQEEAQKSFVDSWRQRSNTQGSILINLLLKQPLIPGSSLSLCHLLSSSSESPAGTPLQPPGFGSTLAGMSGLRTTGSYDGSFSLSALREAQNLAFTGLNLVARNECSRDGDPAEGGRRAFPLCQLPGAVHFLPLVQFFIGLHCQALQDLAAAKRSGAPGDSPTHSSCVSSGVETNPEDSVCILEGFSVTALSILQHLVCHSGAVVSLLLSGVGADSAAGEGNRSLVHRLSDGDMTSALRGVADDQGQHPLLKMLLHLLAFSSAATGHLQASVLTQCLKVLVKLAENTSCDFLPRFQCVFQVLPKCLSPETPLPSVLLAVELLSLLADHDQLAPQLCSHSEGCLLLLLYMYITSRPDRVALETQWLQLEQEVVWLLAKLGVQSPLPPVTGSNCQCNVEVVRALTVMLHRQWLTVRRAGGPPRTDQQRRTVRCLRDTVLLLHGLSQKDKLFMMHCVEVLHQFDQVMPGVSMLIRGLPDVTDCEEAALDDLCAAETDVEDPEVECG

This assay concerns the target full-length human ATR protein (ATR/ATRIP) (Homo sapiens (Human), UniProt Q13535). Description: Binding Assay ATR (TR-FRET, tracer A displacement). As to conditions: displacement of fluorescent tracer A from GST-ATR/ATRIP. The source says:
To determine of binding activity of the test compounds, full-length human ATR protein was expressed and purified together with ATRIP as described above. Furthermore, a fluorescently labelled compound (tracer A as described above) was used as a tracer molecule. Detection of the binding event of the tracer was achieved by time-resolved fluorescence energy transfer (TR-FRET). We used an anti-GST-Terbium antibody (CisBio) that binds to the GST-tag at the N-terminus of ATR-kinase. Excitation of Terbium with 337 nm light results in emission of fluorescent light with 545 nm. In case a tetrameric complex has formed (antiGST-Tb+GST-ATR+Strp2-ATRIP+tracer), part of the energy will be transferred from the Terbium to the fluorophore that itself emits light of 570 nm. Displacement of the fluorescent tracer by a test compound leads to a reduction of the TR-FRET-signal.
For the assay 50 nl of a 100-fold concentrated solution of the test compound in DMSO was pipetted into a black low volume 384 well microtiter plate (MTP, Greiner Bio-One, Frickenhausen, Germany). To prepare the ATR-working solution, ATR/ATRIP stock solution was diluted in assay buffer [50 mM HEPES (pH 7.0), 10 mM MgCl2, 1 mM DTT, 0.01% (w/v) Igepal, 0.01% (w/v) BSA] to 4.2 nM protein concentration (concentration may vary from lot to lot of protein preparation). AntiGST-Tb antibody was diluted to 4.2 nM. The ATR-working solution was incubated for 30 min at 22° C. prior to dispensing to pre-form the complex of antiGST-Tb+GST-ATR+ATRIP. Then, 3 μl of the ATR-working solution were added to the test compound and the mixture was incubated for 10 min at 22° C. to allow pre-binding of the test compounds to ATR/ATRIP. Then, 2 μl of a 100 nM solution of tracer A in assay buffer were added to the ATR-working solution. The resulting mixture was incubated for 30 min at 22° C. The measurement of the TR-FRET signal was performed in a standard HTRF-compatible MTP reader instrument (e.g. BMG Pherastar) by recording the fluorescence emissions at 545 nm and 570 nm after excitation at 337-350 nm. The ratio between emission at 570 nm divided by emission at 545 nm was calculated to give the well ratio. The experimental data (well ratios) were normalised by the following way: positive control contained ATR-working solution plus tracer A solution (=0% inhibition), the negative control contained all components except GST-ATR/ATRIP (=100% inhibition). Usually the compounds were tested on the same MTP in 11 different concentrations in the range of 20 μM to 0.1 nM (20 μM, 5.9 μM, 1.7 μM, 0.51 μM, 0.15 μM, 44 nM, 13 nM, 3.8 nM, 1.1 nM, 0.33 nM and 0.1 nM). The dilution series were prepared separately before the assay on the level of the 100 fold concentrated solutions in DMSO by serial 1:3.4 dilutions in duplicate values for each concentration. IC50 values were calculated by a 4 parameter fit using standard software (GraphPad prism or equivalent).
Background: TR-FRET usually uses a lanthanide donor and a delayed reading to cut background.
As to `Cc1cnc(-c2ccn[nH]2)c2nc(N3CCOC[C@H]3C)cc(-c3ccc(C(=O)N(C)C)cc3)c12` [Example 35, N,N-dimethyl-4-{5-methyl-2-[(3R)-3-methylmorpholin-4-yl]-8-(1H-pyrazol-5-yl)-1,7-naphthyridin-4-yl}benzamide], the IC50 amounted to 28.8 nM.
On to `Cc1cnc(-c2ccn[nH]2)c2nc(N3CCOC[C@H]3C)cc(-c3ccc(NS(C)(=O)=O)cc3)c12` [Example 32, N-(4-{5-methyl-2-[(3R)-3-methylmorpholin-4-yl]-8-(1H-pyrazol-5-yl)-1,7-naphthyridin-4-yl}phenyl)methanesulfonamide], for which the IC50 came to 4.31 nM.
For `COc1cc(Cl)ccc1-c1cc(N2CCOC[C@H]2C)nc2c(-c3ccn[nH]3)ncc(C)c12` [Example 38, 4-(4-chloro-2-methoxyphenyl)-5-methyl-2-[(3R)-3-methylmorpholin-4-yl]-8-(1H-pyrazol-5-yl)-1,7-naphthyridine] the value was 47.9 nM; for `Cc1cnc(-c2ccn[nH]2)c2nc(N3CCOC[C@H]3C)cc(-c3ccc(C(=O)N4CCCC4)cc3)c12` [Example 53, (4-{5-methyl-2-[(3R)-3-methylmorpholin-4-yl]-8-(1H-pyrazol-5-yl)-1,7-naphthyridin-4-yl}phenyl)(pyrrolidin-1-yl)methanone], 27.3 nM.
Turning to `COc1cccc(-c2cc(N3CCOC[C@H]3C)nc3c(-c4ccn[nH]4)ncc(C)c23)c1F` [Example 30, 4-(2-fluoro-3-methoxyphenyl)-5-methyl-2-[(3R)-3-methylmorpholin-4-yl]-8-(1H-pyrazol-5-yl)-1,7-naphthyridine], the IC50 worked out at 17.5 nM.
For the compound `Cc1cnc(-c2ccn[nH]2)c2nc(N3CCOC[C@H]3C)cc(-c3ccc(C(=O)NC(C)(C)C)cc3)c12` [Example 62, N-tert-butyl-4-{5-methyl-2-[(3R)-3-methylmorpholin-4-yl]-8-(1H-pyrazol-5-yl)-1,7-naphthyridin-4-yl}benzamide], the IC50 worked out at 18.2 nM.
`COc1cc(OC)cc(-c2cc(N3CCOC[C@H]3C)nc3c(-c4ccn[nH]4)ncc(C)c23)c1` [Example 42, 4-(3,5-dimethoxyphenyl)-5-methyl-2-[(3R)-3-methylmorpholin-4-yl]-8-(1H-pyrazol-5-yl)-1,7-naphthyridine] showed a half-maximal inhibitory concentration (IC50) of 112 nM.
In turn, `COc1ccc(-c2cc(N3CCOC[C@H]3C)nc3c(-c4ccn[nH]4)ncc(C)c23)cn1` [Example 27, 4-(6-methoxypyridin-3-yl)-5-methyl-2-[(3R)-3-methylmorpholin-4-yl]-8-(1H-pyrazol-5-yl)-1,7-naphthyridine] registered a half-inhibitory concentration (IC50) of 15.4 nM.
Compound `Cc1cnc(-c2ccn[nH]2)c2nc(N3CCOC[C@H]3C)cc(-c3ccc(F)nc3)c12` [Example 49, 4-(6-fluoropyridin-3-yl)-5-methyl-2-[(3R)-3-methylmorpholin-4-yl]-8-(1H-pyrazol-5-yl)-1,7-naphthyridine] showed an IC50 of 28.6 nM.
With `Cc1cc(-c2cc(N3CCOC[C@H]3C)nc3c(-c4ccn[nH]4)ncc(C)c23)ccc1Cl` [Example 36, 4-(4-chloro-3-methylphenyl)-5-methyl-2-[(3R)-3-methylmorpholin-4-yl]-8-(1H-pyrazol-5-yl)-1,7-naphthyridine], the half-inhibitory concentration (IC50) came out at 456 nM.
On to `Cc1cnc(-c2ccn[nH]2)c2nc(N3CCOC[C@H]3C)cc(P(C)(=O)OCC(C)C)c12` (stereo partly drawn) [Example 19, 2-methylpropyl methyl{5-methyl-2-[(3R)-3-methylmorpholin-4-yl]-8-(1H-pyrazol-5-yl)-1,7-naphthyridin-4-yl}phosphinate], for which the IC50 worked out at 34.9 nM.
Turning to `COc1ccc(-c2cc(N3CCOC[C@H]3C)nc3c(-c4ccn[nH]4)ncc(C)c23)cc1` [Example 25, 4-(4-methoxyphenyl)-5-methyl-2-[(3R)-3-methylmorpholin-4-yl]-8-(1H-pyrazol-5-yl)-1,7-naphthyridine], the half-inhibitory concentration (IC50) was found to be 25.4 nM.
Consider `Cc1cnc(-c2ccn[nH]2)c2nc(N3CCOC[C@H]3C)cc(-c3cccc(CO)c3)c12` [Example 23, (3-{5-methyl-2-[(3R)-3-methylmorpholin-4-yl]-8-(1H-pyrazol-5-yl)-1,7-naphthyridin-4-yl}phenyl)methanol], for which the half-maximal inhibitory concentration (IC50) turned out to be 14 nM.
The compound `Cc1cnc(-c2ccn[nH]2)c2nc(N3CCOC[C@H]3C)cc(-c3ccc(F)cc3)c12` [Example 24, 4-(4-fluorophenyl)-5-methyl-2-[(3R)-3-methylmorpholin-4-yl]-8-(1H-pyrazol-5-yl)-1,7-naphthyridine] yielded a 50% inhibitory concentration (IC50) of 34.7 nM.
Compound `Cc1cnc(-c2ccn[nH]2)c2nc(N3CCOC[C@H]3C)cc(P(C)(C)=O)c12` [Example 18, 4-(dimethylphosphoryl)-5-methyl-2-[(3R)-3-methylmorpholin-4-yl]-8-(1H-pyrazol-5-yl)-1,7-naphthyridine] yielded an IC50 of 66.4 nM.
With `Cc1cnc(-c2ccn[nH]2)c2nc(N3CCOC[C@H]3C)cc(-c3cccc(OC(C)C)c3)c12` [Example 60, 5-methyl-2-[(3R)-3-methylmorpholin-4-yl]-4-[3-(propan-2-yloxy)phenyl]-8-(1H-pyrazol-5-yl)-1,7-naphthyridine], the IC50 worked out at 132 nM.
Under `Cc1cnc(-c2ccn[nH]2)c2nc(N3CCOC[C@H]3C)cc(-c3ccnc4ccccc34)c12` [Example 43, 5-methyl-2-[(3R)-3-methylmorpholin-4-yl]-8-(1H-pyrazol-5-yl)-4-(quinolin-4-yl)-1,7-naphthyridine] stands 36 nM.
As for `Cc1cnc(-c2ccn[nH]2)c2nc(N3CCOC[C@H]3C)cc(-c3cc(F)cc(F)c3F)c12` [Example 26, 5-methyl-2-[(3R)-3-methylmorpholin-4-yl]-8-(1H-pyrazol-5-yl)-4-(2,3,5-trifluorophenyl)-1,7-naphthyridine], the IC50 turned out to be 11.2 nM.
Take `Cc1cnc(-c2ccn[nH]2)c2nc(N3CCOC[C@H]3C)cc(-c3ccccc3)c12` [Example 20, 5-methyl-2-[(3R)-3-methylmorpholin-4-yl]-4-phenyl-8-(1H-pyrazol-5-yl)-1,7-naphthyridine]: the IC50 is 24.4 nM.
`CNC(=O)c1ccc(-c2cc(N3CCOC[C@H]3C)nc3c(-c4ccn[nH]4)ncc(C)c23)cc1` [Example 66, N-methyl-4-{5-methyl-2-[(3R)-3-methylmorpholin-4-yl]-8-(1H-pyrazol-5-yl)-1,7-naphthyridin-4-yl}benzamide] displayed an IC50 of 12.9 nM.
As for `Cc1cnccc1-c1cc(N2CCOC[C@H]2C)nc2c(-c3ccn[nH]3)ncc(C)c12` [Example 46, 5-methyl-2-[(3R)-3-methylmorpholin-4-yl]-4-(3-methylpyridin-4-yl)-8-(1H-pyrazol-5-yl)-1,7-naphthyridine], the IC50 was determined as 7.78 nM.
In turn, `COCc1ccc(-c2cc(N3CCOC[C@H]3C)nc3c(-c4ccn[nH]4)ncc(C)c23)cc1` [Example 65, 4-[4-(methoxymethyl)phenyl]-5-methyl-2-[(3R)-3-methylmorpholin-4-yl]-8-(1H-pyrazol-5-yl)-1,7-naphthyridine] displayed a half-inhibitory concentration (IC50) of 12.3 nM.
The compound `Cc1cnc(-c2ccn[nH]2)c2nc(N3CCOC[C@H]3C)cc(-c3ccc(Cl)cc3Cl)c12` [Example 22, 4-(2,4-dichlorophenyl)-5-methyl-2-[(3R)-3-methylmorpholin-4-yl]-8-(1H-pyrazol-5-yl)-1,7-naphthyridine] gave a half-maximal inhibitory concentration (IC50) of 16.4 nM.
In turn, `Cc1cnc(-c2ccn[nH]2)c2nc(N3CCOC[C@H]3C)cc(-c3ccc4c(ccn4C)c3)c12` [Example 57, 5-methyl-4-(1-methyl-1H-indol-5-yl)-2-[(3R)-3-methylmorpholin-4-yl]-8-(1H-pyrazol-5-yl)-1,7-naphthyridine] returned a half-inhibitory concentration (IC50) of 50 nM.
Take `Cc1cnc(-c2ccn[nH]2)c2nc(N3CCOC[C@H]3C)cc(-c3ccc(C(=O)NCc4ccccc4)cc3)c12` [Example 54, N-benzyl-4-{5-methyl-2-[(3R)-3-methylmorpholin-4-yl]-8-(1H-pyrazol-5-yl)-1,7-naphthyridin-4-yl}benzamide]: the IC50 worked out at 34.6 nM.
`Cc1cnc(-c2ccn[nH]2)c2nc(N3CCOC[C@H]3C)cc(-c3ccc([S+](C)[O-])cc3)c12` (stereo partly drawn) [Example 29, 5-methyl-2-[(3R)-3-methylmorpholin-4-yl]-4-[4-(methylsulfinyl)phenyl]-8-(1H-pyrazol-5-yl)-1,7-naphthyridine] displayed an IC50 of 29.1 nM.
